Laboratory results from patent US6740521B2, “High-sensitive detection of environmental pollutants” (priority 2001, dated 2004).
Like-named read-outs stand apart in the source and are kept apart here.

Tested on: CHO 2F1813 cells
Type: cell-based, Chinese hamster
[1] = 2F1813 strain compared with SV40-promoter control strain 5K95, FIG. 3 to FIG. 6

Compound	Induction of the β-galactosidase activity expression [1]	Fluorescence value (β-galactosidase inducing activity)	Induction of the β-galactosidase activity expression
Nonylphenol A	observed only in the 2F1813 stain		
[Cd] [Cadmium]	observed only in the 2F1813 stain		
Clc1ccccc1Cl [o-Dichlorobenzene]	observed only in the 2F1813 stain		
C1COCCO1 [1,4-Dioxane]		0˜27 RU	
CCCCC(CC)COC(=O)c1ccccc1C(=O)OCC(CC)CCCC (stereo not shown) [Di(ethylhexyl)phthalate]	observed only in the 2F1813 stain		
[Ni] [Nickel]		1.3˜18 RU	observed only in the 2F1813 stain
